Assay: Temperature (vital signs)
Conditions: 60 mg
Procedure: The Investigational Medicinal Product (IMP) R(−)-ketamine hydrochloride in sterile water for intravenous injection was investigated as an […] treatment of TRD. The International Union of Pure and Applied Chemistry (IUPAC) name is of the IMP is (2R)-2-(2-chlorophenyl)-2-(methylamino)cyclohexan-1-one. Subjects received the solution at either 30 mg or 60 mg dose, or a placebo. The IMP or placebo was administered on Day 1 as a single IV infusion via an electronic infusion pump over 40 minutes. The duration of study participation for each subject was up to 29 days including a screening period, a 3-day in-clinic visit, and 2 follow-up visits. 101 subjects were enrolled in approximately 20 study centers in the EU and the US.
Tympanic or temporal temperature, heart rate, blood pressure (SBP/DBP), respiratory rate, and SpO2 were assessed. Blood pressure and pulse measurements will be assessed with a completely automated device while the subject is supine or semi-supine. Manual techniques will be used only if an automated device is not available. Blood pressure and pulse measurements should be preceded by at least 5 minutes of rest for the subject in a quiet setting without distractions (e.g., television, cell phones). An abnormal blood pressure value at screening may be repeated once after 5 minutes of relaxation to determine the subject's eligibility. Blood pressure was recorded using the same arm and position (supine or semi-supine) throughout the study, where possible. Vital signs (to be taken before blood collection for laboratory tests) consisted of 1 pulse and 3 blood pressure measurements (3 consecutive blood pressure readings will be recorded at intervals of at least 1 minute). The average of the 3 blood pressure readings was recorded in the CRF. A pulse oximeter was used to measure peripheral capillary oxygen saturation (SpO2) continuously from pre-dose until 4-hours post-dose. A pulse oximeter was clipped onto the finger or foot of the subject, and light will be sent through the finger or foot and measured on the other side.
In these tables, baseline value is defined as the last non-missing value prior to study drug administration.

With `CN[C@@]1(c2ccccc2Cl)CCCCC1=O.Cl` [R(−)-ketamine, (2R)-2-(2-chlorophenyl)-2-(methylamino)cyclohexan-1-one] the “Temperature, Max” value (Day 1, 15 minutes) was 36.9 °C, the “Temperature, Mean” value (Day 1, 15 minutes) was 36.58 °C and the “Temperature, Median” value (Day 1, 15 minutes) was 36.50 °C. The “Temperature, Min” value (Day 1, 15 minutes) was 36.4 °C, the “Temperature, Max” value (Day 1, 40 minutes) was 36.8 °C and the “Temperature, Mean” value (Day 1, 40 minutes) was 36.58 °C. For the same molecule, the “Temperature, Median” value (Day 1, 40 minutes) was 36.60 °C, the “Temperature, Min” value (Day 1, 40 minutes) was 36.3 °C and the “Temperature, Max” value (Day 1, 60 minutes) was 36.8 °C. The “Temperature, Mean” value (Day 1, 60 minutes) was 36.55 °C, the “Temperature, Median” value (Day 1, 60 minutes) was 36.50 °C and the “Temperature, Min” value (Day 1, 60 minutes) was 36.4 °C. The “Temperature, Max” value (Day 1, 2 hours) was 37.0 °C, the “Temperature, Mean” value (Day 1, 2 hours) was 36.60 °C and the “Temperature, Median” value (Day 1, 2 hours) was 36.60 °C. The “Temperature, Min” value (Day 1, 2 hours) was 36.2 °C, the “Temperature, Max” value (Day 1, 4 hours) was 37.0 °C and the “Temperature, Mean” value (Day 1, 4 hours) was 36.60 °C. The “Temperature, Median” value (Day 1, 4 hours) was 36.60 °C, the “Temperature, Min” value (Day 1, 4 hours) was 36.3 °C and the “Temperature, Max” value (Day 1, 6 hours) was 37.1 °C. For the same molecule, the “Temperature, Mean” value (Day 1, 6 hours) was 36.61 °C, the “Temperature, Median” value (Day 1, 6 hours) was 36.60 °C and the “Temperature, Min” value (Day 1, 6 hours) was 36.1 °C. For the same molecule, the “Temperature, Max” value (Day 2 - Discharge) was 36.9 °C, the “Temperature, Mean” value (Day 2 - Discharge) was 36.60 °C and the “Temperature, Median” value (Day 2 - Discharge) was 36.60 °C. For the same molecule, the “Temperature, Min” value (Day 2 - Discharge) was 36.1 °C, the “Temperature, Max” value (Day 8) was 37.2 °C and the “Temperature, Mean” value (Day 8) was 36.55 °C. For the same molecule, the “Temperature, Median” value (Day 8) was 36.60 °C, the “Temperature, Min” value (Day 8) was 35.8 °C and the “Temperature, Max” value (Day 15) was 37.0 °C. The “Temperature, Mean” value (Day 15) was 36.62 °C, the “Temperature, Median” value (Day 15) was 36.60 °C and the “Temperature, Min” value (Day 15) was 36.3 °C. For the same molecule, the “Temperature, Change from Baseline, Max” value (to Day 1, 15 minutes) was 0.3 °C, the “Temperature, Change from Baseline, Mean” value (to Day 1, 15 minutes) was 0.04 °C and the “Temperature, Change from Baseline, Median” value (from here on “Temperature, Change … Median”) (to Day 1, 15 minutes) was 0.00 °C. For the same molecule, the “Temperature, Change from Baseline, Min” value (to Day 1, 15 minutes) was −0.2 °C, the “Temperature, Change from Baseline, Max” value (to Day 1, 40 minutes) was 0.7 °C and the “Temperature, Change from Baseline, Mean” value (to Day 1, 40 minutes) was 0.05 °C. For the same molecule, the “Temperature, Change … Median” value (to Day 1, 40 minutes) was 0.00 °C, the “Temperature, Change from Baseline, Min” value (to Day 1, 40 minutes) was −0.4 °C and the “Temperature, Change from Baseline, Max” value (to Day 1, 60 minutes) was 0.3 °C. The “Temperature, Change from Baseline, Mean” value (to Day 1, 60 minutes) was 0.01 °C, the “Temperature, Change … Median” value (to Day 1, 60 minutes) was 0.00 °C and the “Temperature, Change from Baseline, Min” value (to Day 1, 60 minutes) was −0.3 °C. The “Temperature, Change from Baseline, Max” value (to Day 1, 2 hours) was 0.8 °C, the “Temperature, Change from Baseline, Mean” value (to Day 1, 2 hours) was 0.07 °C and the “Temperature, Change … Median” value (to Day 1, 2 hours) was 0.00 °C. The “Temperature, Change from Baseline, Min” value (to Day 1, 2 hours) was −0.5 °C, the “Temperature, Change from Baseline, Max” value (to Day 1, 4 hours) was 0.9 °C and the “Temperature, Change from Baseline, Mean” value (to Day 1, 4 hours) was 0.07 °C. The “Temperature, Change … Median” value (to Day 1, 4 hours) was 0.00 °C, the “Temperature, Change from Baseline, Min” value (to Day 1, 4 hours) was −0.2 °C and the “Temperature, Change from Baseline, Max” value (to Day 1, 6 hours) was 1.0 °C. The “Temperature, Change from Baseline, Mean” value (to Day 1, 6 hours) was 0.07 °C, the “Temperature, Change … Median” value (to Day 1, 6 hours) was 0.00 °C and the “Temperature, Change from Baseline, Min” value (to Day 1, 6 hours) was −0.4 °C. The “Temperature, Change from Baseline, Max” value (to Day 2 - Discharge) was 0.6 °C, the “Temperature, Change from Baseline, Mean” value (to Day 2 - Discharge) was 0.07 °C and the “Temperature, Change … Median” value (to Day 2 - Discharge) was 0.10 °C. For the same molecule, the “Temperature, Change from Baseline, Min” value (to Day 2 - Discharge) was −0.7 °C, the “Temperature, Change from Baseline, Max” value (to Day 8) was 1.2 °C and the “Temperature, Change from Baseline, Mean” value (to Day 8) was 0.01 °C. The “Temperature, Change … Median” value (to Day 8) was 0.00 °C, the “Temperature, Change from Baseline, Min” value (to Day 8) was −0.9 °C and the “Temperature, Change from Baseline, Max” value (to Day 15) was 1.2 °C. For the same molecule, the “Temperature, Change from Baseline, Mean” value (to Day 15) was 0.08 °C, the “Temperature, Change … Median” value (to Day 15) was 0.00 °C and the “Temperature, Change from Baseline, Min” value (to Day 15) was −0.5 °C.

Reference: US20260027068A1, “METHODS OF ADM[…]-KETAMINE” (Perception Neuroscience, Inc., priority 2022, published 2026)
